Assays:
[1] = Water solubility in aqueous buffer; conditions: aqueous buffer 10 mM Tris-HCl, pH 7.4, 20° C.
Protocol: The solid compounds were added stepwise to the buffer solution. More substance is added once all the suspended material is dissolved until an equilibrium between undissolved and dissolved substance is reached. The suspension was mixed using a shaker (Heidolph Reax 2000) and treated 5 min in an ultrasound bath (Bandelin, Sonorex Super RK255H).

[2] = Partition coefficient (log P butanol/buffer); assay type: physicochemical; conditions: 1-butanol / 50 mM Tris-HCl, pH 7.4, room temperature
[3] = In vivo pharmacokinetics following i.v. administration in rat
Protocol: Pharmacokinetic parameters of Example 1 and 15 and were determined in male and female rats (Han-Wistar, n=4). […] The samples were digested using strong acidic and oxidizing conditions at elevated temperature following dilution in 1% nitric acid to bring the samples in the quantification range of the method. The lower limit of quantitation amounts to 1 nmol/L for all elements and the upper limit to 1000 nmol/L in the diluted sample.
The fit of the obtained data to a three-compartment model (Phoenix, WinNonlin 6.4, 3-compartment mode) yielded the pharmacokinetic parameters which are shown in Table 8.

[4] = Excretion study in rats (5 days) and residual gadolinium organ distribution (7 days); assay type: in vivo, rat; conditions: 0.1 mmol Gd/kg bw i.v.; for Σ organs and carcass [% Dose]: 7 d post injection
Protocol: The excretion and organ distribution of Example 1 and 15 were determined in male rats (Han-Wistar, n=3). The compound was administered as a sterile aqueous solution (50 mmol Gd/L) as a bolus in the tail vein of the animals. The dose was 0.1 mmol Gd/kg bw. Urine was collected in the following time periods 0-1 h, 1-3 h, 3-6 h, 6-24 h, 1-2d and 2-5d post injection […] and feces 0-1d, 1-2d and 2-5d post injection. As a control, 3 animals were treated in the same way with RC1. On day 7 the animals were sacrificed, and the following organs were excised: blood, liver, kidney, spleen, heart, lung, brain, muscle, skin, stomach, gut, bone and bone marrow. The remaining carcass was freeze dried and ground to a fine powder. The Gd concentration in the organs and the carcass was determined by ICP-MS (ICP-MS Agilent 7500a, Waldbronn, Germany). The compounds are excreted via dual pathway (liver and kidney). Less than 1% of the administered dose was present in the body 7 days after the injection.

[5] = Complex stability (transmetallation) against Zn2+ in phosphate buffer; conditions: 72 hours, 2.5 mM Zn^2+, 26 mM phosphate buffer, 37° C., pH 7.4
Excerpt: If test compounds are instable under these conditions, transmetallation during this test would lead to the formation of the Zn^2+ complex of the test item, while Gd^3+ is released and precipitated as highly insoluble GdPO4.

OATP1B1 = biological target: T1, OATP1B1 (Homo sapiens, UniProt Q9Y6L6); assay: Uptake into stable transfected OATP1B1 HEK 293 cells; assay type: cell-based; conditions: for Uptake into OATP1B1-HEK 293 cells: 40 min incubation, relative to RC1 (Gd-EOB-DTPA); for Inhibition Rifampicine: uptake into OATP1B1-HEK 293 cells
T1 sequence (Q9Y6L6 1-691): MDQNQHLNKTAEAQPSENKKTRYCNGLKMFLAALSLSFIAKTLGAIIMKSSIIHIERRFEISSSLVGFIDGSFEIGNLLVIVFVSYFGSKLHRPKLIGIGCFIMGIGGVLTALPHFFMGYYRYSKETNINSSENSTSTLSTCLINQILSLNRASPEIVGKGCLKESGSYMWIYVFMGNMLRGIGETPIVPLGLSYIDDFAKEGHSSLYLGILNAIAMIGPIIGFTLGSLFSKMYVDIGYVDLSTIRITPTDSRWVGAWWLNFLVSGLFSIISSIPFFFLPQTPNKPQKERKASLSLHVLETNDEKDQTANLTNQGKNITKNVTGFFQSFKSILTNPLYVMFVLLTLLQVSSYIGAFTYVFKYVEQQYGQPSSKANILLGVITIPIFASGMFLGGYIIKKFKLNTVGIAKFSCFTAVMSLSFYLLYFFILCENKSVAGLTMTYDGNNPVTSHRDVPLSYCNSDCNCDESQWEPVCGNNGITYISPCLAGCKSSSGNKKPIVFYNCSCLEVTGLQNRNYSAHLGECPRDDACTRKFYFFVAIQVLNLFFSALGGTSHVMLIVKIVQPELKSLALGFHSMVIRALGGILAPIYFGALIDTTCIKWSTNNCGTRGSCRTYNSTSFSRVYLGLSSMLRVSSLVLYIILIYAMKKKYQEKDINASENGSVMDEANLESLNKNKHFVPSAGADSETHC
How it was run: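 Stably transfected OATP1B1 HEK293 cells incubated 40 min without shaking with test item at 100 µM final in transport buffer, in triplicate. Cells then washed with cold PBS; gadoxetate run on the same plate as reference.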

[6] = tested on: freshly isolated rat hepatocytes; assay: Uptake into freshly isolated rat hepatocytes; conditions: for Uptake rat hepatocytes: 100 μmol Gd/L, 10 min, 37° C., relative to RC1 (Gd-EOB-DTPA); for Inhibition Rifampicine: rat hepatocyte uptake, test item and Rifampicine 1:1, each 100 μM
Protocol: After incubation the adherent hepatocytes were washed once with 37° C. Hepes carbonate transport buffer (500 μL/well). The test items and RC1 were prepared from stock solutions (180 to 500 mM concentration) in Hepes carbonate transport buffer at pH 7.4 to reach a final concentration of 100 μmol Gd/L. The specific uptake of the test item or RC1 into rat hepatocytes via OATP1B1 and OATP1B3 was challenged using a known OATP1B1/1B3 inhibitor (Rifampicine, Fa. Sigma R3501, test item and inhibitor 1:1 each 100 μM final concentration). The prepared rat hepatocyte plates were incubated with test solutions (500 μL/well) at 37° C. for 10 min using a thermoshaker (Fa. Grant Bio, PHMP). Triplicates were performed for each test item. After incubating the cells were washed once with cold PBS buffer (Fa. Gibco, Dulbeccos PBS (+)). After washing the intact hepatocytes were lysed by addition of 500 μL cold 0.01% Triton-X 100 in Millipore water for 1 h. […] As a reference standard RC1 is used in the same well plate. The hepatocyte uptake of the test compound is calculated relative to RC1 (resulting in the unit % of RC1).

plasma proteins = assay: Plasma protein binding, equilibrium dialysis, rat; assay type: in vitro ADME
Excerpt: The binding of Example 1 and 15 to plasma proteins of different species (human, dog, monkey, rabbit, mouse and rat) was investigated in vitro by using equilibrium dialysis in reusable 96-well Micro-Equilibrium Dialysis Devices (ht dialysis) (Banker M J et al. J Pharm Sci. 2003 May; 92 (5): 967-74).

CCOc1ccc(CCOCC(C(=O)O)N2CCN(CC(=O)[O-])CCN(CC(=O)[O-])CCN(CC(=O)[O-])CC2)cc1.[Gd+3] (stereo not drawn) [Example 1, gadolinium 2,2′,2″-(10-{1-carboxy-2-[2-(4-ethoxyphenyl)ethoxy]ethyl}-1,4,7,10-tetraazacyclododecane-1,4,7-triyl)triacetate]
Solubility [1]: >258 mM | Log P (partition coefficient butanol/buffer) [2]: −0.98 | AUC∞ Area under the curve ([3]; dose 25 μmol/kg bw): 16 µM·h | Clplasma Plasma clearance ([3]; dose 25 μmol/kg bw): 26.7 mL/min/kg | Vss Volume of distribution at steady state ([3]; dose 25 μmol/kg bw): 0.4 L/kg | t½ α Half-life, compartment V1 ([3]; dose 25 μmol/kg bw): 1.8 min | t½ β Half-life, compartment V2 ([3]; dose 25 μmol/kg bw): 13 min | t½ γ Half-life, compartment V3 ([3]; dose 25 μmol/kg bw): 114 min | AUC∞ Area under the curve ([3]; dose 250 μmol/kg bw): 315 µM·h | Clplasma Plasma clearance ([3]; dose 250 μmol/kg bw): 13 mL/min/kg | Vss Volume of distribution at steady state ([3]; dose 250 μmol/kg bw): 0.2 L/kg | t½ α Half-life, compartment V1 ([3]; dose 250 μmol/kg bw): 3 min | t½ β Half-life, compartment V2 ([3]; dose 250 μmol/kg bw): 11 min | t½ γ Half-life, compartment V3 ([3]; dose 250 μmol/kg bw): 396 min | Total recovery [% Dose] [4]: 98.6 ± 2.1% | Excretion in urine [% Dose] ([4]; 0-1 h post injection): 39.8 ± 6.8% | Excretion in feces [% Dose] ([4]; 0-1 d post injection): 55.6 ± 5.6% | Excretion in urine [% Dose] ([4]; 1-3 h post injection): 40.3 ± 6.8% | Excretion in feces [% Dose] ([4]; 1-2 d post injection): 56.9 ± 6.6% | Excretion in urine [% Dose] ([4]; 1-2 d post injection): 40.9 ± 7.4% | Excretion in feces [% Dose] ([4]; 2-5 d post injection): 57.0 ± 6.6% | Excretion in urine [% Dose] ([4]; 2-5 d post injection): 40.9 ± 7.4% | Excretion in urine [% Dose] ([4]; 3-6 h post injection): 40.3 ± 6.8% | Excretion in urine [% Dose] ([4]; 6-24 h post injection): 40.8 ± 7.4% | Σ organs and carcass [% Dose] [4]: 0.65 ± 0.07% | Transmetallation stability [5]: 99% | Uptake into OATP1B1-HEK 293 cells (OATP1B1): 187 % of RC1 | Inhibition Rifampicine (OATP1B1): 92 % inhibition | Uptake rat hepatocytes [6]: 29 % of RC1 | Inhibition Rifampicine [6]: 93 % inhibition | Fraction unbound fu (plasma proteins): 92%

CCOCCOCCOc1ccc(CC(C(=O)O)N2CCN(CC(=O)[O-])CCN(CC(=O)[O-])CCN(CC(=O)[O-])CC2)cc1.[Gd+3] (stereo not drawn) [Example 2, gadolinium 2,2′,2″-{10-[1-carboxy-2-{4-[2-(2-ethoxyethoxy)ethoxy]phenyl}ethyl]-1,4,7,10-tetraazacyclododecane-1,4,7-triyl}triacetate]
Solubility [1]: >757 mM | Log P (partition coefficient butanol/buffer) [2]: −1.63 | Transmetallation stability [5]: 100% | Uptake into OATP1B1-HEK 293 cells (OATP1B1): 324 % of RC1 | Inhibition Rifampicine (OATP1B1): 45 % inhibition | Uptake rat hepatocytes [6]: 52 % of RC1 | Inhibition Rifampicine [6]: 85 % inhibition | Fraction unbound fu (plasma proteins): >95%

CCOCCOCCOc1ccc(CCC[C@@H](C(=O)O)N2CCN([C@@H](CO)C(=O)[O-])CCN([C@@H](CO)C(=O)[O-])CCN([C@@H](CO)C(=O)[O-])CC2)cc1.[Gd+3] [Example 15, gadolinium (2S,2′S,2″S)-2,2′,2″-{10-[(1S)-1-carboxy-4-{4-[2-(2-ethoxyethoxy)ethoxy]phenyl}butyl]-1,4,7,10-tetraazacyclododecane-1,4,7-triyl}tris(3-hydroxypropanoate)]
Solubility [1]: >500 mM | Log P (partition coefficient butanol/buffer) [2]: −1.00 | AUCnorm Area under the curve ([3]; dose 25 μmol/kg bw): 0.38 kg·h/L | Clplasma Plasma clearance ([3]; dose 25 μmol/kg bw): 45 mL/min/kg | Vss Volume of distribution at steady state ([3]; dose 25 μmol/kg bw): 0.4 L/kg | t½ α Half-life, compartment V1 ([3]; dose 25 μmol/kg bw): 3 min | t½ β Half-life, compartment V2 ([3]; dose 25 μmol/kg bw): 12 min | t½ γ Half-life, compartment V3 ([3]; dose 25 μmol/kg bw): 588 min | Total recovery [% Dose] [4]: 97.9 ± 5.4% | Excretion in urine [% Dose] ([4]; 0-1 h post injection): 12.6 ± 11.1% | Excretion in feces [% Dose] ([4]; 0-1 d post injection): 78.6 ± 6.2% | Excretion in urine [% Dose] ([4]; 1-3 h post injection): 17.3 ± 3.4% | Excretion in feces [% Dose] ([4]; 1-2 d post injection): 80.0 ± 5.3% | Excretion in urine [% Dose] ([4]; 1-2 d post injection): 17.7 ± 3.3% | Excretion in feces [% Dose] ([4]; 2-5 d post injection): 80.0 ± 5.3% | Excretion in urine [% Dose] ([4]; 2-5 d post injection): 17.7 ± 3.3% | Excretion in urine [% Dose] ([4]; 3-6 h post injection): 17.4 ± 3.3% | Excretion in urine [% Dose] ([4]; 6-24 h post injection): 17.6 ± 3.3% | Σ organs and carcass [% Dose] [4]: 0.11 ± 0.03% | Transmetallation stability [5]: 101% | Inhibition Rifampicine (OATP1B1): 91 % inhibition | Uptake rat hepatocytes [6]: 109 % of RC1 | Inhibition Rifampicine [6]: 94 % inhibition | Fraction unbound fu (plasma proteins): 71%

CCOc1ccc(CC(CN(CCN(CC(=O)[O-])CC(=O)[O-])CC(=O)[O-])N(CC(=O)[O-])CC(=O)[O-])cc1.[Gd+3].[Na+].[Na+] (stereo not drawn) [RC1, gadoxetate disodium, reference compound]
Solubility [1]: >250 mM | Log P (partition coefficient butanol/buffer) [2]: −2.12 | AUCnorm Area under the curve ([3]; dose 100 μmol/kg bw): 0.40 kg·h/L | Clplasma Plasma clearance ([3]; dose 100 μmol/kg bw): 40 mL/min/kg | Vss Volume of distribution at steady state ([3]; dose 100 μmol/kg bw): 0.9 L/kg | t½ α Half-life, compartment V1 ([3]; dose 100 μmol/kg bw): 2 min | t½ β Half-life, compartment V2 ([3]; dose 100 μmol/kg bw): 8 min | t½ γ Half-life, compartment V3 ([3]; dose 100 μmol/kg bw): 390 min | Total recovery [% Dose] [4]: 104.6 ± 2.4% | Excretion in urine [% Dose] ([4]; 0-1 h post injection): 23.2 ± 1.6% | Excretion in feces [% Dose] ([4]; 0-1 d post injection): 77.5 ± 2.7% | Excretion in urine [% Dose] ([4]; 1-3 h post injection): 23.5 ± 1.5% | Excretion in feces [% Dose] ([4]; 1-2 d post injection): 80.6 ± 2.9% | Excretion in urine [% Dose] ([4]; 1-2 d post injection): 23.7 ± 1.5% | Excretion in feces [% Dose] ([4]; 2-5 d post injection): 80.8 ± 2.9% | Excretion in urine [% Dose] ([4]; 2-5 d post injection): 23.7 ± 1.5% | Excretion in urine [% Dose] ([4]; 3-6 h post injection): 23.6 ± 1.5% | Excretion in urine [% Dose] ([4]; 6-24 h post injection): 23.7 ± 1.5% | Σ organs and carcass [% Dose] [4]: 0.14 ± 0.08% | Transmetallation stability [5]: 44% | Uptake into OATP1B1-HEK 293 cells (OATP1B1): 100 % of RC1 | Inhibition Rifampicine (OATP1B1): 81 % inhibition | Uptake rat hepatocytes [6]: 100 % of RC1 | Inhibition Rifampicine [6]: 97 % inhibition

Reference: patent US20260083864A1, “CONTRAST AGENTS FOR USE IN DIAGNOSTIC COMPUTED TOMOGRAPHY IMAGING” (Bayer Aktiengesellschaft, priority 2022, published 2026)
